Consider 3 compounds from patent US8202890B2, “Pest control agent” (Meiji Seika Pharma Co., Ltd., priority 2006, dated 2012).

One assay deals with Aphis gossypii. Nature of the assay: Pesticidal effect against Aphis gossypii (cucumber leaf disk). Type of assay: in vivo. The conditions noted are these: Aphis gossypii first instar larvae, spread, 3 days, 25° C. From the text:
A leaf disk having a diameter of 2.0 cmφ was cut out from a cucumber grown in a pot and was placed in a 5.0 cm-Schale. A test solution, which had been adjusted to a predetermined concentration by the addition of a 50% aqueous acetone solution (0.05% Tween 20 added) was spread over the […] leaf disk. After air dried, ten (10) of larvae of Aphis gossypii at the first instar were released in the Schale. Thereafter, the Schale was lidded and was allowed to stand in a temperature-controlled room (light period 16 hr-dark period 8 hr) (25° C.).
(§1) The death rate of larvae was calculated by the following equation. Death rate (%)={number of dead larvae/(number of survived larvae+number of dead larvae)}×100 The concentrations which gave the death rate of 90% or more are shown in Table 2.

The test system of another assay is Myzus persicae. In words: Pesticidal effect against Myzus persicae (cabbage leaf disk). Type of assay: in vivo. The conditions noted are these: Myzus persicae first instar larvae, spread, 3 days, 25° C.
Excerpt: A leaf disk having a diameter of 2.8 cmφ was cut out from a cabbage grown in a pot and was placed in a 5.0 cm-Schale. Four adult aphids of Myzus persicae were released in the Schale. One day after the release of the adult aphids, the adult aphids were removed. The number of larvae at the first instar born in the leaf disk was adjusted to 10, and a test solution, which had been adjusted to a predetermined concentration by the addition of a 50% aqueous acetone solution (0.05% Tween 20 added) was spread over the cabbage leaf disk. The cabbage leaf disk was then air dried. Thereafter, the Schale was lidded and was allowed to stand in a temperature-controlled room (light period 16 hr-dark period 8 hr) (25° C.).
as §1

In a further assay the test system is Pseudococcus comstocki. Nature of the assay: Pesticidal effect against Pseudococcus comstocki (Phaseolus vulgaris leaf disk). The assay is classed as in vivo. The conditions noted are these: Pseudococcus comstocki first instar larvae, spread, 3 days, 25° C. The protocol: A leaf disk having a diameter of 2.8 cmφ was cut out from a leaf of Phaseolus vulgaris and was placed on an agar in a plastic cup, into which ten (10) of larvae of Pseudococcus comstocki at the first instar were released. A test solution, which had been adjusted to a predetermined concentration by the addition of a 50% aqueous acetone solution (0.05% Tween 20 added) was spread. After air dried, it was allowed to stand in a temperature-controlled room (light period 16 hr-dark period 8 hr) (25° C.).
as §1

Assay [1] relates to larvae of Helicoverpa zea. The conditions noted are these: in vivo; cited from earlier work.
Assay [2] has as its system Plutella xylostella L larvae. The conditions noted are these: in vivo; cited from earlier work.
The subject of another assay is Tenebrio molitor L. The conditions noted are these: in vivo; cited from earlier work.

Consider `CC1(COC(=O)C2CC2)C2CC(=O)[C@@]3(C)Oc4cc(-c5cccnc5)oc(=O)c4[C@H](O)C3[C@@]2(C)CC[C@@H]1OC(=O)C1CC1` (stereo partly drawn) [Compound 1], for which the “Concentration (ppm) for the death rate of 90% or more, Test Example 2” value in the assay with Aphis gossypii is 0.078 ppm. In addition, in the assay with Myzus persicae, the “Concentration (ppm) for the death rate of 90% or more, Test Example 1” value came out at 0.010 ppm. In addition, in the assay on Pseudococcus comstocki, the “Concentration (ppm) for the death rate of 90% or more, Test Example 3” value is on record as 0.156 ppm.
On to `CC1(COC(=O)C2CC2)C2CC[C@@]3(C)Oc4cc(-c5cccnc5)oc(=O)c4[C@H](O)C3[C@@]2(C)CC[C@@H]1OC(=O)C1CC1` (stereo partly drawn) [Compound 2], for which the “Concentration (ppm) for the death rate of 90% or more, Test Example 2” value in the assay with Aphis gossypii was 0.078 ppm. Besides, the “Concentration (ppm) for the death rate of 90% or more, Test Example 1” value in the assay with Myzus persicae came out at 0.039 ppm. In addition, the “Concentration (ppm) for the death rate of 90% or more, Test Example 3” value in the assay with Pseudococcus comstocki came out at 0.625 ppm.
As to Pyripyropene A, the “insecticidal activity against larvae of Helicoverpa zea” value in assay [1] was “insecticidal activity”. In assay [2], the “insecticidal activity against Plutella xylostella L larvae” value is recorded as “insecticidal activity”. The “insecticidal activity against Tenebrio molitor L” value in the assay on Tenebrio molitor L is reported as “insecticidal activity”.
